Data reported in the supplement of paper PMC10307832.

Assays:
Assay in all cases: relative viability (nuclei count vs DMSO), 5 days (fraction); higher = more cells survive
[1] = compound: C=CCc1cccc(/C=N/NC(=O)CN2CCN(Cc3ccccc3)CC2)c1O [PAC-1] + CCNC(=O)c1noc(-c2cc(C(C)C)c(O)cc2O)c1-c1ccc(CN2CCOCC2)cc1 [Luminespib] (partner 0.01 µM)
Procedure, shortened: (§1)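 Relative viability is defined as nuclei in treated wells over nuclei in vehicle wells. Duplicate plates were run and medians reported. Lung cancer cell lines in 1536-well plates were dosed by pin tool one day after seeding, with one drug or with a fixed anchor-drug dose plus five library-drug doses (not always all listed) in √10 steps, and nuclei were counted after 5 days.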

[2] = compound: C=CC(=O)Nc1cc(-n2c(=O)ccc3cnc4ccc(-c5ccc(NS(C)(=O)=O)cc5)cc4c32)ccc1C [BMX-IN-1] + CC(=O)Nc1cccc(-n2c(=O)n(C3CC3)c(=O)c3c(Nc4ccc(I)cc4F)n(C)c(=O)c(C)c32)c1 [Trametinib] (partner 0.02 µM)
Procedure, shortened: as §1

[3] = compound: C=CC(=O)Nc1cc(-n2c(=O)ccc3cnc4ccc(-c5ccc(NS(C)(=O)=O)cc5)cc4c32)ccc1C [BMX-IN-1] + CS(=O)(=O)N1CCN(Cc2cc3nc(-c4cccc5[nH]ncc45)nc(N4CCOCC4)c3s2)CC1 [Pictilisib] (partner 1 µM)
Procedure, shortened: as §1

[4] = compound: C=CC(=O)N1CCC[C@@H](n2nc(-c3ccc(Oc4ccccc4)cc3)c3c(N)ncnc32)C1 [Ibrutinib] + CS(=O)(=O)CCNCc1ccc(-c2ccc3ncnc(Nc4ccc(OCc5cccc(F)c5)c(Cl)c4)c3c2)o1 [Lapatinib] (partner 2 µM)
Procedure, shortened: as §1

Cell Line | relative viability ([1]; first compound 0.02 µM) | relative viability ([1]; first compound 0.06325 µM) | relative viability ([1]; first compound 0.2 µM) | relative viability ([1]; first compound 2 µM) | relative viability ([2]; first compound 0.02 µM) | relative viability ([2]; first compound 0.2 µM) | relative viability ([2]; first compound 0.6325 µM) | relative viability ([2]; first compound 2 µM) | relative viability ([3]; first compound 0.02 µM) | relative viability ([3]; first compound 0.2 µM) | relative viability ([3]; first compound 0.6325 µM) | relative viability ([3]; first compound 2 µM) | relative viability ([4]; first compound 0.005 µM) | relative viability ([4]; first compound 0.01581 µM) | relative viability ([4]; first compound 0.05 µM) | relative viability ([4]; first compound 0.1581 µM) | relative viability ([4]; first compound 0.5 µM)
HOP-62 | 0.954 | 0.835 | 0.852 | 0.942 | 0.44 | 0.379 | 0.366 | 0.341 | 0.639 | 0.761 | 0.929 | 0.688 | 1.04 | 0.922 | 1.08 | 1.13 | 1.12
IA-LM |  |  |  |  |  |  |  |  | 0.337 | 0.403 | 0.427 | 0.386 | 0.792 | 0.827 | 0.592 | 1.1 | 0.814
LC-2-ad | 1.06 | 1.02 | 0.971 | 0.963 | 1.02 | 0.945 | 0.929 | 0.94 | 0.645 | 0.555 | 0.619 | 0.482 | 0.938 | 0.577 | 0.972 | 0.911 | 0.968
LCLC-97TM1 | 0.74 | 0.916 | 0.621 | 0.868 | 0.213 | 0.27 | 0.204 | 0.176 | 0.189 | 0.197 | 0.274 | 0.207 | 0.69 | 0.913 | 1.41 |  | 0.931
LCLC-103H | 1.06 | 0.932 | 0.981 | 0.911 | 0.753 | 0.758 | 0.736 | 0.683 | 0.636 | 0.612 | 0.684 | 0.609 |  |  |  |  | 
LK-2 | 0.176 | 0.169 | 0.225 | 0.254 | 0.943 | 1.02 | 0.793 | 0.847 | 0.8 | 0.696 | 0.543 | 0.59 | 0.602 | 0.93 | 0.956 | 0.877 | 0.769
LOU-NH91 | 0.312 | 0.271 | 0.352 | 0.322 |  | 0.814 | 0.849 | 0.784 |  | 0.509 | 0.546 | 0.512 | 0.638 | 0.786 | 0.774 | 0.737 | 0.694
LU99A | 0.304 | 0.229 | 0.266 | 0.217 | 0.515 | 0.548 | 0.548 | 0.572 | 0.309 | 0.382 | 0.39 | 0.301 | 0.936 | 1.08 | 1.1 | 1.04 | 0.995
LXF-289 | 0.683 | 0.731 | 0.758 | 0.756 | 0.722 | 0.704 | 0.761 | 0.752 | 0.808 | 0.863 | 0.88 | 0.761 | 0.918 | 0.903 | 0.932 | 0.88 | 0.923
NCI-H23 | 0.231 | 0.223 | 0.237 | 0.219 | 0.38 | 0.423 | 0.318 | 0.361 | 0.483 | 0.495 | 0.582 | 0.411 | 0.943 | 1.19 | 1.18 | 1.15 | 
